Assay results as given in the NIST ThermoML archive (doi:10.1016/j.jct.2014.10.014).
± gives the expanded uncertainty stated by the source.

Assay: mn = molality of the nth substance listed, in mol/kg
Conditions: 100 kPa, Liquid, Alternating current cell with electrodes

C[C@H](CCC(=O)[O-])[C@H]1CC[C@H]2[C@@H]3[C@H](O)C[C@@H]4C[C@H](O)CC[C@]4(C)[C@H]3C[C@H](O)[C@]12C.[Na+] [sodium cholate] + O
electrical conductivity [S/m]
Conditions	293.15 K	298.15 K	303.15 K	308.15 K	313.15 K	318.15 K
m1 = 0.001	0.0066 ± 0.0039	0.007 ± 0.0043	0.005 ± 0.0036	0.007 ± 0.0042	0.0075 ± 0.0037	0.0115 ± 0.0038
m1 = 0.002	0.0129 ± 0.0039	0.014 ± 0.004	0.0115 ± 0.004	0.014 ± 0.004	0.014 ± 0.0039	0.0175 ± 0.0038
m1 = 0.003	0.019 ± 0.0039	0.0204 ± 0.0039	0.018 ± 0.0039	0.02 ± 0.0039	0.02 ± 0.0039	0.0235 ± 0.004
m1 = 0.004	0.0254 ± 0.0038	0.0267 ± 0.0039	0.0242 ± 0.0039	0.0263 ± 0.004	0.0265 ± 0.004	0.0305 ± 0.004
m1 = 0.005	0.031 ± 0.0039	0.0326 ± 0.0038	0.0308 ± 0.004	0.0332 ± 0.004	0.0332 ± 0.004	0.0369 ± 0.0039
m1 = 0.006	0.0378 ± 0.0039	0.0386 ± 0.0038	0.0373 ± 0.004	0.0397 ± 0.0039	0.0395 ± 0.004	0.043 ± 0.0039
m1 = 0.007	0.0434 ± 0.0039	0.0442 ± 0.0037	0.0439 ± 0.004	0.0454 ± 0.0039	0.0466 ± 0.0041	0.0497 ± 0.004
m1 = 0.008	0.0503 ± 0.0039	0.0498 ± 0.0038	0.0503 ± 0.004	0.0524 ± 0.004	0.0533 ± 0.004	0.0565 ± 0.0041
m1 = 0.009	0.0558 ± 0.0039	0.0562 ± 0.004	0.057 ± 0.004	0.0584 ± 0.004	0.06 ± 0.004	0.0633 ± 0.0041
m1 = 0.01	0.0628 ± 0.004	0.063 ± 0.0039	0.0635 ± 0.004	0.0653 ± 0.0043	0.0668 ± 0.0042	0.0705 ± 0.0042
m1 = 0.011	0.0689 ± 0.0039	0.0687 ± 0.0039	0.07 ± 0.0039	0.0735 ± 0.0042	0.0745 ± 0.0042	0.0779 ± 0.0042
m1 = 0.012	0.0754 ± 0.0041	0.0753 ± 0.0041	0.076 ± 0.0038	0.0798 ± 0.0039	0.0815 ± 0.0041	0.0855 ± 0.0043
m1 = 0.013	0.0827 ± 0.0039	0.0825 ± 0.0039	0.082 ± 0.0038	0.0861 ± 0.0038	0.0885 ± 0.0039	0.093 ± 0.004
m1 = 0.014	0.0881 ± 0.0036	0.088 ± 0.0036	0.0873 ± 0.0037	0.0911 ± 0.0037	0.0939 ± 0.0037	0.0985 ± 0.0038
m1 = 0.015	0.0929 ± 0.0037	0.0928 ± 0.0035	0.093 ± 0.0037	0.0967 ± 0.0037	0.0995 ± 0.0036	0.104 ± 0.0038
m1 = 0.016	0.0985 ± 0.0036	0.097 ± 0.0034	0.0981 ± 0.0036	0.102 ± 0.0037	0.104 ± 0.0036	0.111 ± 0.0039
m1 = 0.017	0.103 ± 0.0034	0.101 ± 0.0034	0.103 ± 0.0036	0.108 ± 0.0037	0.11 ± 0.0037	0.117 ± 0.0038
m1 = 0.018	0.107 ± 0.0034	0.105 ± 0.0034	0.108 ± 0.0036	0.113 ± 0.0036	0.115 ± 0.0037	0.122 ± 0.0036
m1 = 0.019	0.111 ± 0.0034	0.109 ± 0.0033	0.113 ± 0.0036	0.118 ± 0.0036	0.12 ± 0.0037	0.127 ± 0.0036
m1 = 0.02	0.115 ± 0.0034	0.112 ± 0.0038	0.118 ± 0.0035	0.123 ± 0.0035	0.126 ± 0.004	0.132 ± 0.0036

C[C@H](CCC(=O)[O-])[C@H]1CC[C@H]2[C@@H]3CC[C@@H]4C[C@H](O)CC[C@]4(C)[C@H]3C[C@H](O)[C@]12C.[Na+] [sodium deoxycholate] + O
electrical conductivity [S/m]
Conditions	293.15 K	298.15 K	303.15 K	308.15 K	313.15 K	318.15 K
m1 = 0.0005	0.003 ± 0.0041	0.0035 ± 0.0038	0.004 ± 0.004	0.0035 ± 0.0038	0.0035 ± 0.0038	0.004 ± 0.0038
m1 = 0.001	0.0065 ± 0.004	0.0065 ± 0.0038	0.007 ± 0.0038	0.0065 ± 0.0038	0.0065 ± 0.004	0.007 ± 0.0038
m1 = 0.0015	0.0095 ± 0.0038	0.0095 ± 0.0038	0.01 ± 0.0038	0.0095 ± 0.0038	0.01 ± 0.0039	0.01 ± 0.0038
m1 = 0.002	0.0125 ± 0.0038	0.0125 ± 0.0038	0.013 ± 0.0038	0.0124 ± 0.0038	0.0128 ± 0.0038	0.013 ± 0.0038
m1 = 0.0025	0.0155 ± 0.0038	0.0155 ± 0.0038	0.016 ± 0.0039	0.0153 ± 0.0039	0.016 ± 0.0039	0.016 ± 0.0038
m1 = 0.003	0.0185 ± 0.0037	0.0182 ± 0.0038	0.0191 ± 0.0038	0.0185 ± 0.004	0.019 ± 0.0038	0.019 ± 0.0038
m1 = 0.0035	0.021 ± 0.0038	0.0213 ± 0.0039	0.0218 ± 0.0038	0.022 ± 0.004	0.022 ± 0.0037	0.022 ± 0.0038
m1 = 0.004	0.0242 ± 0.0038	0.0243 ± 0.0039	0.0248 ± 0.0037	0.025 ± 0.0038	0.0245 ± 0.0038	0.025 ± 0.0038
m1 = 0.0045	0.027 ± 0.0038	0.0275 ± 0.0039	0.0274 ± 0.0038	0.028 ± 0.0038	0.028 ± 0.0038	0.028 ± 0.0038
m1 = 0.005	0.03 ± 0.0038	0.0305 ± 0.0038	0.0305 ± 0.0039	0.031 ± 0.0037	0.0305 ± 0.0037	0.031 ± 0.0038
m1 = 0.0055	0.033 ± 0.0037	0.0335 ± 0.0037	0.0335 ± 0.0037	0.0335 ± 0.0037	0.0335 ± 0.0038	0.034 ± 0.0038
m1 = 0.006	0.0355 ± 0.0036	0.036 ± 0.0036	0.0358 ± 0.0035	0.0365 ± 0.0036	0.0365 ± 0.0036	0.037 ± 0.0038
m1 = 0.0065	0.038 ± 0.0035	0.0385 ± 0.0035	0.038 ± 0.0035	0.0385 ± 0.0035	0.0385 ± 0.0034	0.04 ± 0.0037
m1 = 0.007	0.0399 ± 0.0034	0.0405 ± 0.0034	0.0405 ± 0.0036	0.041 ± 0.0036	0.0405 ± 0.0034	0.0425 ± 0.0036
m1 = 0.0075	0.042 ± 0.0034	0.0425 ± 0.0034	0.043 ± 0.0036	0.0435 ± 0.0035	0.0425 ± 0.0035	0.045 ± 0.0036
m1 = 0.008	0.044 ± 0.0034	0.0445 ± 0.0034	0.0455 ± 0.0036	0.0455 ± 0.0035	0.045 ± 0.0036	0.0475 ± 0.0036
m1 = 0.0085	0.046 ± 0.0034	0.0465 ± 0.0034	0.048 ± 0.0035	0.048 ± 0.0035	0.0475 ± 0.0036	0.05 ± 0.0036
m1 = 0.009	0.048 ± 0.0034	0.0485 ± 0.0035	0.0499 ± 0.0034	0.05 ± 0.0035	0.0499 ± 0.0035	0.0525 ± 0.0036
m1 = 0.0095	0.05 ± 0.0034	0.051 ± 0.0035	0.052 ± 0.0034	0.0525 ± 0.0036	0.0519 ± 0.0034	0.055 ± 0.0036
m1 = 0.01	0.0518 ± 0.0033	0.053 ± 0.0034	0.054 ± 0.0034	0.055 ± 0.0033	0.0539 ± 0.0041	0.0575 ± 0.0036
